Data reported in patent US8158605B2, “Azacytidine analogues and uses thereof” (Mount Sinai School of Medicine, priority 2007, dated 2012).

Experiments:
Jurkat = experiment: WST-1 cytotoxicity assay; type: cell-based; conditions: Homo sapiens
Description: (§1) Human promyelocytic leukemia cell lines HL60, human histiocytic lymphoma U937, human chronic myelogenous leukemia K562, human acute T cell Jurkat, breast adenocarcinoma MCF-7, urinary bladder carcinoma 5637, prostate carcinoma DU-145 were purchased from American Type Culture Collection. All cell lines except Jurkat were maintained in RPMI 1640 medium (Gibco, Glasgow, UK) supplemented with 10% heat-inactivated fetal calf serum (FCS), 100 U/ml of penicillin, and […] streptomycin, in an atmosphere of 5% CO2 at 37° C. Jurkat cells were cultured in RPMI 1640 medium supplemented with 1.5 g/L sodium bicarbonate, 4.5 g/L glucose, 10 mM sodium pyruvate, and 10% FCS, 100 U/ml of penicillin, and […] streptomycin.
(§2) MCF-7, DU-145, and 5637 cells (1×10^4/ml) were plated and allowed to adhere and spread for 24 hours. […] Cultures were incubated with WST-1 reagent for 1 hour. The production of formazan was measured by a microplate reader (Bio-Tek Instruments, Elx 800) at 450 nm with a reference wavelength of 650 nm. Growth inhibition was determined as compared to untreated cells (%). IC50 values were calculated using CalcuSyn software (Biosoft).

DU145 = experiment: WST-1 cytotoxicity assay; type: cell-based; conditions: Homo sapiens, DU-145
Description: as §1, §2

5637 = experiment: WST-1 cytotoxicity assay; type: cell-based
Description: as §1, §2

MCF-7 = experiment: WST-1 cytotoxicity assay; type: cell-based; conditions: Homo sapiens, MCF7
Description: as §1, §2

U937 = experiment: WST-1 cytotoxicity assay; type: cell-based; conditions: Homo sapiens, U-937
Description: as §1, §2

K562 = experiment: WST-1 cytotoxicity assay; type: cell-based; conditions: Homo sapiens
Description: as §1, §2

HL60 = experiment: WST-1 cytotoxicity assay; type: cell-based; conditions: Homo sapiens, HL-60
Description: as §1, §2

NFκB = experiment: LPS stimulated NFκB luciferase reporter activity in U937 cells; type: cell-based, human; conditions: 10 nM, LPS 1 μg/ml, 1, 3 or 6 hours, compared to DMSO treated control
Description: NFκB-luciferase reporter genes were used to determine the influence of Aza-C and 5-Aza-C-5′-elaidic acid on NFκB-induced luciferase activity in a human monocytic cell line U937, stably transfected with a luciferase reporter containing three NFκB-binding sites. The induction of NFκB was performed using lipopolysaccharide (LPS) at 1 μg/ml for 30 minutes prior to the addition of Aza-C or 5-Aza-C-5′-elaidic acid in the concentrations 10 nM to the medium. The cells were cultured in RPMI-1640 medium including 10% fetal bovine serum. Before stimulation with LPS the cells were transferred to medium containing only 2% fetal bovine serum. Luciferase activity was measured by imaging in an IVIS imaging System 100 (Xenogen Corp., USA) after 1, 3 or 6 hours. The LPS stimulation increased with time over the 6 hours followed in the DMSO treated control cells. […] Generally, a positive stimulation of NFκB as observed for azacytidine is not positive, and it is positive that the LPS stimulation is not further increased by 5′Aza-C-5′-elaidic acid.

[1] = tested on: MT-3/ADR resistant breast carcinoma; experiment: MTT cytotoxicity; type: cell-based; conditions: MDR1, MT-3/ADR resistant breast carcinoma (overexpress MDR-1/p-glycoprotein), 24 hours
Description: (§3) The cytotoxicity of Aza-C and 5-Aza-C-5′-elaidic acid was determined in a breast cancer cell line MT-3 and the adriablastin resistant cell line MT-3/ADR. The MT-3/ADR overexpress the MDR-1/p-glycoprotein. […] The cells were incubated for 24 hours. […] Six wells were used per test concentration. The cells were incubated with test compound for 24 hours. […] Similar activity was obtained for Aza-C and 5-Aza-C-5′-elaidic acid in the MT-3 breast carcinoma cell line, but in the MT-3/ADR resistant cell line the activity of Aza-C was lost. […] This may be of importance in the treatment of resistant cancer.

[2] = tested on: breast carcinoma cell line MT-3; experiment: MTT cytotoxicity; type: cell-based; conditions: MT-3 breast carcinoma, 24 hours
Description: as §3

estrogen receptor beta = experiment: Gene expression of estrogen receptor β by real-time PCR in MCF-7 cells; type: cell-based; conditions: MCF-7, 1 μM, 5 days
Description: The gene expression (determined on RNA level) of estrogen receptor beta was determined by quantitative real-time PCR. (TaqMan). MCF-7 mammary carcinoma cells were grown in estrogen deficient media (Phenol-Red-free RPMI with 2% glutamine and 10% charcoal-dextran treated fetal calf serum). […] One untreated control was included as control. The cells were harvested after 5 days of exposure to the compounds; they were harvested by trypsination, washed and shock frozen in liquid nitrogen.
The total RNA was extracted from approximately 10^6 shock frozen MCF-7 cells. The RNA concentration and purity was measured, and RNA was transcribed into cDNA using TaqMan Reverse Trancription reagents (N808-0234). Real-time quantification was performed using standard protocols and premixed PCR reagents. The primer-probe mixes were ordered from Applied Biosystems, ER β (ID Hs00230957_ml) and housekeeping gene hydrocylmethyl-bilane synthase HMBS (ID Hs00609297_ml). Gene expression was calculated using the comparative delta-delta Ct method.

[3] = tested on: U937, HL60 and K562 cells; experiment: Differentiating induction (NBT reduction, benzidine staining); type: cell-based, human; conditions: repeated exposure for 11 (HL60) or 14 (U937, K562) days
Description: Cell differentiation was studied in terms of morphology. […] After initial treatment on day 0, cells were exposed to the new portions of drugs on day 4, 7, and 10. The differentiation was evaluated by NBT reduction assay (U937 and HL60) or by benzidine staining (K562).

CCCCCCCC/C=C/CCCCCCCC(=O)OC[C@H]1O[C@@H](n2cnc(N)nc2=O)[C@H](O)[C@@H]1O [CP, 5-azacytidine 5′-elaidate]
IC50 (Jurkat; 24 hour treatment): 1.19 µM
IC50 (Jurkat; 48 hour treatment): 0.88 µM
IC50 (Jurkat; 72 hour treatment): 0.84 µM
IC50 (DU145; DU145, 24 hour treatment): 6.79 µM
IC50 (DU145; DU145, 48 hour treatment): 6.31 µM
IC50 (DU145; DU145, 72 hour treatment): 5.88 µM
IC50 (5637; 5637, 24 hour treatment): 9.39 µM
IC50 (5637; 5637, 48 hour treatment): 5.95 µM
IC50 (5637; 5637, 72 hour treatment): 3.52 µM
IC50 (MCF-7; MCF-7, 24 hour treatment): 19.1 µM
IC50 (MCF-7; MCF-7, 48 hour treatment): 9.32 µM
IC50 (MCF-7; MCF-7, 72 hour treatment): 9.99 µM
IC50 (U937; U937, 24 hour treatment): 0.44 µM
IC50 (U937; U937, 48 hour treatment): 0.6 µM
IC50 (U937; U937, 72 hour treatment): 0.87 µM
IC50 (K562; K562, 24 hour treatment): 1.26 µM
IC50 (K562; K562, 48 hour treatment): 0.92 µM
IC50 (HL60; HL60, 24 hour treatment): 3.19 µM
IC50 (HL60; HL60, 48 hour treatment): 3.6 µM
IC50 (HL60; HL60, 72 hour treatment): 2.68 µM
LPS stimulated NFκB luciferase activity (NFκB): did not differ from the DMSO control
IC50 [1]: 14.8 ± 12.8 µM
IC50 [2]: 17 ± 15.7 µM
Ct ER β (estrogen receptor beta): 32.97
delta (estrogen receptor beta): 7.06
Delta delta (estrogen receptor beta; versus untreated): −2.40
differentiation induction [3]: did not induce significant differentiation
